Assay results reported in ChEMBL document CHEMBL5725520, “Benzoisothiazole compounds and methods of treating schizophrenia” (2017).

Target: D(2) dopamine receptor (Homo sapiens, UniProt P14416)
Assay: Receptor Binding Test: 1. Experimental Materials:(1) D2 receptor Cell Transfection:This experiment utilizes the plasmid vector containing the gene of D2 receptor protein for transfecting HEK293 cells by calcium phosphate transfection method.

Chain of D(2) dopamine receptor (P14416 whole entry): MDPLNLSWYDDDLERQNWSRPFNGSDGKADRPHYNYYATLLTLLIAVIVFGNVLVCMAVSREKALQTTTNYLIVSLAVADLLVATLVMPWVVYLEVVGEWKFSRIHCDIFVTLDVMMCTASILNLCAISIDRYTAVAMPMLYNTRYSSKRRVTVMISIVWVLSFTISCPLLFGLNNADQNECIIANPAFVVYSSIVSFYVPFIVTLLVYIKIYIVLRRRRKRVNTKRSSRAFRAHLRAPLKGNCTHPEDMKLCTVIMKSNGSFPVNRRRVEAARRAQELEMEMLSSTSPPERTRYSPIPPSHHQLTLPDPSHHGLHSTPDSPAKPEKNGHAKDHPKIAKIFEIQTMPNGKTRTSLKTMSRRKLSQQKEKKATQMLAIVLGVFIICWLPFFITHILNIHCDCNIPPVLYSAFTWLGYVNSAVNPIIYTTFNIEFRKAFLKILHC

Question: For `CCOC(=O)N[C@H]1CC[C@@H](CCN2CCN(c3nsc4ccccc34)CC2)CC1`, which Ki is on record?
Answer: The Ki was 1.97 nM.

Question: For `O=C(N[C@H]1CC[C@H](CCN2CCN(c3nsc4ccccc34)CC2)CC1)Oc1ccc([N+](=O)[O-])cc1`, which Ki is on record?
Answer: Its Ki is 12.4 nM.

Question: With `O=C(N[C@H]1CC[C@H](CCN2CCN(c3nsc4ccccc34)CC2)CC1)OCc1ccccc1` as the molecule, how does the Ki read?
Answer: Its Ki is 1.6 nM.

Question: For `O=C(N[C@H]1CC[C@H](CCN2CCN(c3nsc4ccccc34)CC2)CC1)OC1CC1`, which Ki is on record?
Answer: Its Ki is 3.26 nM.

Question: With `O=C(N[C@H]1CC[C@@H](CCN2CCN(c3nsc4ccccc34)CC2)CC1)OCc1ccccc1` as the molecule, how does the Ki read?
Answer: Its Ki is 0.98 nM.

Question: For `O=C(N[C@H]1CC[C@H](CCN2CCN(c3nsc4ccccc34)CC2)CC1)OC1CCCCC1`, which Ki is on record?
Answer: The Ki was 11.8 nM.

Target: T1, 5-hydroxytryptamine receptor 1A (Homo sapiens, UniProt P08908)
T1 sequence (P08908 whole entry): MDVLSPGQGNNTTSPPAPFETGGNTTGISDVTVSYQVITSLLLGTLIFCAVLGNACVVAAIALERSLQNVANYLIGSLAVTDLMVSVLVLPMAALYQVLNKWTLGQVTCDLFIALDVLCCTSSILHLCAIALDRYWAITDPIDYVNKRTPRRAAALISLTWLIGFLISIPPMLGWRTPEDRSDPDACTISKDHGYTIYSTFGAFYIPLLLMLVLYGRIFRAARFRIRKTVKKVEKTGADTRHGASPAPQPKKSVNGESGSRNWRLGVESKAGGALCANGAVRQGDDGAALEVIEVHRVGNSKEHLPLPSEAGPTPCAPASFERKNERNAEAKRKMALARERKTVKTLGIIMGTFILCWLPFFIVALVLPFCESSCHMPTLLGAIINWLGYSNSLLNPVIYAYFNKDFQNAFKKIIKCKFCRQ
Assay: 5-HT1A Receptor Binding Test: 1. Experimental Materials:The isotopic ligand of 5-H1A receptor […] (purchased from PE Corporation), (+)5-hydroxytryptamine (purchased from Sigma Corporation), GF/B glassfiber filter (purchased from Whatman Corporation), fat-soluble scintillation fluid: PPO and POPOP (purchased from Shanghai No. 1 Reagent Factory), toluene (purchased from Sinopharm Chemical Reagent Co., Ltd), and Tris (imported and subpackaged).Cells: HEK-293 cells stably expressing 5-HT1A receptors as obtained by gene recombination are cultured for 3-5 days in cell culture medium DMEM supplemented with 10% serum. […] Total binding tube […] 20 μL D1 Binding Buffer 20 μL Cells 160 μL Non-specific tube […] 20 μL 5-HT(10−4) 20 μL Cells 160 μL Tube with the […] 20 μL compound to be tested The compound to be tested 20 μL Cells 160 μL The components are mixed to homogeneity, and then the above tubes are transferred to water bath at 30° C. (1 h), removed into ice bath immediately, and suction filtered on Harvest (with ice cold Tris eluate for 5 times).

Question: Which Ki does the source give for `CCOC(=O)N[C@H]1CC[C@@H](CCN2CCN(c3nsc4ccccc34)CC2)CC1` here?
Answer: The Ki was 0.97 nM.

Question: For `O=C(N[C@H]1CC[C@H](CCN2CCN(c3nsc4ccccc34)CC2)CC1)OCc1ccccc1`, which Ki is on record?
Answer: Its Ki is 0.79 nM.

Question: With `COC(=O)N[C@H]1CC[C@@H](CCN2CCN(c3nsc4ccccc34)CC2)CC1` as the molecule, how does the Ki read?
Answer: The Ki was 2.55 nM.

Question: Which Ki does the source give for `O=C(N[C@H]1CC[C@H](CCN2CCN(c3nsc4ccccc34)CC2)CC1)OC1CC1` here?
Answer: The Ki was 3.95 nM.

Question: With `O=C(N[C@H]1CC[C@@H](CCN2CCN(c3nsc4ccccc34)CC2)CC1)OCc1ccccc1` as the molecule, how does the Ki read?
Answer: Its Ki is 2.14 nM.

Question: Which Ki does the source give for `O=C(N[C@H]1CC[C@H](CCN2CCN(c3nsc4ccccc34)CC2)CC1)OC1CCCCC1` here?
Answer: Its Ki is 1.69 nM.

System: not listed separately
Assay: Dopamine D3 Receptor Binding Test: The experiment is carried out by the method according to Journal of Pharmacology and Experimental Therapeutics 2010, 333(1): 328. With [3H]methyl-spiperone (0.3 nM) as the ligand and (+)-butaclamol (10 LM) for determining non-specific binding, binding tests are carried out on human recombinant D3 receptor (expressed in CHO cells).
Type: cell-based

Question: With `CCOC(=O)N[C@H]1CC[C@@H](CCN2CCN(c3nsc4ccccc34)CC2)CC1` as the molecule, how does the Ki read?
Answer: The Ki was 0.46 nM.

Question: With `CC(C)COC(=O)N[C@H]1CC[C@H](CCN2CCN(c3nsc4ccccc34)CC2)CC1` as the molecule, how does the Ki read?
Answer: Its Ki is 0.093 nM.

Question: For `O=C(N[C@H]1CC[C@H](CCN2CCN(c3nsc4ccccc34)CC2)CC1)Oc1ccc([N+](=O)[O-])cc1`, which Ki is on record?
Answer: Its Ki is 7.12 nM.

Question: With `O=C(N[C@H]1CC[C@H](CCN2CCN(c3nsc4ccccc34)CC2)CC1)OCc1ccccc1` as the molecule, how does the Ki read?
Answer: Its Ki is 0.061 nM.

Question: With `Cc1ccccc1OC(=O)N[C@H]1CC[C@H](CCN2CCN(c3nsc4ccccc34)CC2)CC1` as the molecule, how does the Ki read?
Answer: The Ki was 8.49 nM.

Question: For `COC(=O)N[C@H]1CC[C@@H](CCN2CCN(c3nsc4ccccc34)CC2)CC1`, which Ki is on record?
Answer: The Ki was 0.087 nM.

Question: For `O=C(N[C@H]1CC[C@H](CCN2CCN(c3nsc4ccccc34)CC2)CC1)Oc1ccc(Cl)cc1`, which Ki is on record?
Answer: Its Ki is 11.6 nM.

Question: Which Ki does the source give for `O=C(N[C@H]1CC[C@H](CCN2CCN(c3nsc4ccccc34)CC2)CC1)OC1CC1` here?
Answer: Its Ki is 1.81 nM.

Question: For `O=C(N[C@H]1CC[C@H](CCN2CCN(c3nsc4ccccc34)CC2)CC1)Oc1ccccc1`, which Ki is on record?
Answer: The Ki was 0.74 nM.

Question: For `O=C(N[C@H]1CC[C@@H](CCN2CCN(c3nsc4ccccc34)CC2)CC1)OCc1ccccc1`, which Ki is on record?
Answer: The Ki was 1.03 nM.

Question: Which Ki does the source give for `COc1cccc(OC(=O)N[C@H]2CC[C@H](CCN3CCN(c4nsc5ccccc45)CC3)CC2)c1` here?
Answer: Its Ki is 1.05 nM.

Question: Which Ki does the source give for `O=C(N[C@H]1CC[C@H](CCN2CCN(c3nsc4ccccc34)CC2)CC1)OC1CCCCC1` here?
Answer: The Ki was 4.3 nM.

Question: For `COC(=O)N[C@H]1CC[C@H](CCN2CCN(c3nsc4ccccc34)CC2)CC1`, which Ki is on record?
Answer: The Ki was 0.1 nM.
